# Assay results taken from PubChem BioAssay (NCI).
#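 All cell lines were grown in 96-well plates and treated with compound for 48 hours. GI50 marks 50% less growth. TGI denotes the concentration required for complete inhibition of growth.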
# Assays:
# Assay in all cases: inhibition of tumour cell growth, NCI panel, 48 h
# RPMI-8226 leukemia = test system: RPMI-8226 leukemia
# MOLT-4 leukemia = test system: MOLT-4 leukemia
# HCT-15 colon = test system: HCT-15 colon
# SF-295 CNS = test system: SF-295 CNS
# NCI/ADR-RES ovarian = test system: NCI/ADR-RES ovarian
# SF-268 CNS = test system: SF-268 CNS
# TK-10 renal = test system: TK-10 renal
# HCC-2998 colon = test system: HCC-2998 colon
# OVCAR-4 ovarian = test system: OVCAR-4 ovarian
# SK-MEL-5 melanoma = test system: SK-MEL-5 melanoma
SMILES,GI50 (RPMI-8226 leukemia),TGI (RPMI-8226 leukemia),GI50 (MOLT-4 leukemia),TGI (MOLT-4 leukemia),GI50 (HCT-15 colon),TGI (HCT-15 colon),GI50 (SF-295 CNS),TGI (SF-295 CNS),GI50 (NCI/ADR-RES ovarian),TGI (NCI/ADR-RES ovarian),GI50 (SF-268 CNS),TGI (SF-268 CNS),GI50 (TK-10 renal),TGI (TK-10 renal),GI50 (HCC-2998 colon),TGI (HCC-2998 colon),GI50 (OVCAR-4 ovarian),TGI (OVCAR-4 ovarian),GI50 (SK-MEL-5 melanoma),TGI (SK-MEL-5 melanoma)
O=C(Nc1ccc(Br)cc1)c1ccc(Cl)c(Cl)c1,3.15 µM,> 100 µM,3.17 µM,> 100 µM,3.02 µM,> 100 µM,2.03 µM,4.94 µM,3.24 µM,> 100 µM,4.51 µM,> 100 µM,4.78 µM,> 100 µM,3.99 µM,> 71.7 µM,3.78 µM,> 100 µM,3.45 µM,> 100 µM
CCC(C)(C)c1ccc(OCCCCCCN2CCNCC2)cc1,1.9 µM,4.41 µM,2.03 µM,5.11 µM,1.66 µM,3.39 µM,1.87 µM,3.6 µM,3.11 µM,8.95 µM,3.78 µM,14 µM,1.8 µM,3.46 µM,2 µM,3.76 µM,1.96 µM,5.03 µM,1.76 µM,3.24 µM
O=C(Nc1ccc(CO)cc1)c1coc2ccccc2c1=O,84.8 µM,> 100 µM,> 100 µM,> 100 µM,> 100 µM,> 100 µM,65.6 µM,> 100 µM,> 100 µM,> 100 µM,> 100 µM,> 100 µM,> 100 µM,> 100 µM,> 100 µM,> 100 µM,> 100 µM,> 100 µM,> 100 µM,> 100 µM
COCCOc1cnc2ccn([C@H](C)c3nnc4c(F)cc(-c5cnn(C)c5)cn34)c(=O)c2c1,> 100 µM,> 100 µM,> 100 µM,> 100 µM,> 100 µM,> 100 µM,23.4 µM,> 100 µM,> 100 µM,> 100 µM,> 100 µM,> 100 µM,> 100 µM,> 100 µM,> 100 µM,> 100 µM,52 µM,> 100 µM,> 100 µM,> 100 µM
COc1ccc(Nc2c3ccccc3nc3occ(Cl)c23)cc1,0.0145 µM,0.571 µM,0.0266 µM,> 44.5 µM,< 0.01 µM,,< 0.01 µM,0.0558 µM,< 0.01 µM,2.09 µM,0.0368 µM,21.5 µM,0.0228 µM,8.67 µM,< 0.01 µM,0.0909 µM,0.73 µM,> 86.6 µM,< 0.01 µM,0.521 µM
[Au+].[Au+].[Au+].[c-]1nccn1Cc1ccccc1.[c-]1nccn1Cc1ccccc1.[c-]1nccn1Cc1ccccc1,3.9 µM,> 100 µM,7.96 µM,> 100 µM,19.9 µM,56.7 µM,10.5 µM,40.2 µM,58 µM,> 100 µM,3.35 µM,15.3 µM,11.1 µM,29.6 µM,14.4 µM,37.9 µM,12.7 µM,44.1 µM,2.93 µM,6.15 µM
Cc1cc(I)cc(CN(C)CCCN2CCOCC2)c1O,17.8 µM,46 µM,30.2 µM,> 100 µM,29 µM,> 100 µM,25.1 µM,74.8 µM,67.5 µM,> 100 µM,38.3 µM,> 100 µM,45.6 µM,> 100 µM,35.4 µM,> 100 µM,63.2 µM,> 100 µM,15.5 µM,28.9 µM
CC(=O)O[C@H](C[C@H](C(C)C)N(C)C(=O)[C@@H](NC(=O)[C@H]1CCCCN1C)C(C)C)c1nc(C(=O)N[C@@H](Cc2ccccc2)C[C@H](C)C(=O)O)c(CCOCc2ccccc2)s1,< 0.001 µM,> 10 µM,< 0.001 µM,> 10 µM,< 0.001 µM,> 10 µM,< 0.001 µM,< 0.0297 µM,0.003 µM,0.0511 µM,< 0.001 µM,> 10 µM,0.108 µM,> 10 µM,< 0.001 µM,0.616 µM,0.00242 µM,> 10 µM,< 0.001 µM,0.00159 µM
C=CCSS/C=C/CS(=O)CC=C (centres undefined),,48.8 µM,,> 29.5 µM,,> 100 µM,,> 100 µM,,74.5 µM,,60.7 µM,,> 100 µM,,> 100 µM,,99.3 µM,,> 100 µM
